Laboratory results from ChEMBL document CHEMBL3885881, “DrugMatrix”.

Species: Rattus norvegicus
Assay: DrugMatrix - Regimen: Daily Repeat
Assay type: toxicity, organism-based, Sprague-Dawley
Design: regimen Daily Repeat, gender Male, age 6-8 weeks
Conditions: in vivo, po, 0 mg/kg, route oral GAVAGE, dose level Control, vehicle .5 % CMC; for ABSOLUTE BASOPHIL / ABSOLUTE EOSINOPHIL / ABSOLUTE LYMPHOCYTE / ABSOLUTE MONOCYTE / ABSOLUTE SEGMENTED NEUTROPHIL / BASOPHIL / EOSINOPHIL / ERYTHROCYTE COUNT / HEMATOCRIT / HEMOGLOBIN / LEUKOCYTE COUNT / LYMPHOCYTE / MEAN CORPUSCULAR HEMOGLOBIN / MEAN CORPUSCULAR HEMOGLOBIN CONCENTRATION / MEAN CORPUSCULAR VOLUME / MONOCYTE / NEUTROPHIL / NUCLEATED RED BLOOD CELLS / PLATELET COUNT: tissue Blood; for ALANINE AMINOTRANSFERASE / ALBUMIN / ALKALINE PHOSPHATASE / ASPARTATE AMINOTRANSFERASE / BLOOD UREA NITROGEN / CARBON DIOXIDE / CHLORIDE / CHOLESTEROL / CREATININE / GLUCOSE / LACTATE DEHYDROGENASE / LIPASE / PHOSPHORUS / POTASSIUM / SODIUM / TOTAL BILIRUBIN / TOTAL PROTEIN / URIC ACID: tissue Plasma

ClC(Cl)Br [BROMODICHLOROMETHANE]
ABSOLUTE BASOPHIL (72 h, time 3 day): 0 CELLS/uL | ABSOLUTE EOSINOPHIL (72 h, time 3 day): 279.83 CELLS/uL | ABSOLUTE LYMPHOCYTE (72 h, time 3 day): 13152.5 CELLS/uL | ABSOLUTE MONOCYTE (72 h, time 3 day): 1013.83 CELLS/uL | ABSOLUTE SEGMENTED NEUTROPHIL (72 h, time 3 day): 2420.5 CELLS/uL | BASOPHIL (72 h, time 3 day): 0% | EOSINOPHIL (72 h, time 3 day): 1.67% | ERYTHROCYTE COUNT (72 h, time 3 day): 5.26 x10E6/uL | HEMATOCRIT (72 h, time 3 day): 32.22% | HEMOGLOBIN (72 h, time 3 day): 12.02 G/DL | LEUKOCYTE COUNT (72 h, time 3 day): 16.87 x10E3/uL | LYMPHOCYTE (72 h, time 3 day): 77.83% | MEAN CORPUSCULAR HEMOGLOBIN (72 h, time 3 day): 22.93 pg | MEAN CORPUSCULAR HEMOGLOBIN CONCENTRATION (72 h, time 3 day): 37.32 G/DL | MEAN CORPUSCULAR VOLUME (72 h, time 3 day): 61.4 fL | MONOCYTE (72 h, time 3 day): 6% | NEUTROPHIL (72 h, time 3 day): 14.5% | NUCLEATED RED BLOOD CELLS (72 h, time 3 day): 0 /100WBC | PLATELET COUNT (72 h, time 3 day): 1122.17 x10E3/uL | ALANINE AMINOTRANSFERASE (72 h, time 3 day): 55.67 u/L | ALBUMIN (72 h, time 3 day): 4.35 G/DL | ALKALINE PHOSPHATASE (72 h, time 3 day): 362.67 u/L | ASPARTATE AMINOTRANSFERASE (72 h, time 3 day): 96 u/L | BLOOD UREA NITROGEN (72 h, time 3 day): 18 mg/dL | CARBON DIOXIDE (72 h, time 3 day): 27.5 mmol/L | CHLORIDE (72 h, time 3 day): 100.17 MEQ/L | CHOLESTEROL (72 h, time 3 day): 74.5 mg/dL | CREATININE (72 h, time 3 day): 0.17 mg/dL | GLUCOSE (72 h, time 3 day): 141.67 mg/dL | LACTATE DEHYDROGENASE (72 h, time 3 day): 682.5 u/L | LIPASE (72 h, time 3 day): 10 u/L | PHOSPHORUS (72 h, time 3 day): 11.5 mg/dL | POTASSIUM (72 h, time 3 day): 6.41 MEQ/L | SODIUM (72 h, time 3 day): 141.2 MEQ/L | TOTAL BILIRUBIN (72 h, time 3 day): 0.18 mg/dL | TOTAL PROTEIN (72 h, time 3 day): 5.88 G/DL | URIC ACID (72 h, time 3 day): 1.4 mg/dL | ABSOLUTE BASOPHIL (120 h, time 5 day): 0 CELLS/uL | ABSOLUTE EOSINOPHIL (120 h, time 5 day): 18.5 CELLS/uL | ABSOLUTE LYMPHOCYTE (120 h, time 5 day): 8146.83 CELLS/uL | ABSOLUTE MONOCYTE (120 h, time 5 day): 204.83 CELLS/uL | ABSOLUTE SEGMENTED NEUTROPHIL (120 h, time 5 day): 1329.83 CELLS/uL | BASOPHIL (120 h, time 5 day): 0% | EOSINOPHIL (120 h, time 5 day): 0.17% | ERYTHROCYTE COUNT (120 h, time 5 day): 5.37 x10E6/uL | HEMATOCRIT (120 h, time 5 day): 33.17% | HEMOGLOBIN (120 h, time 5 day): 12.07 G/DL | LEUKOCYTE COUNT (120 h, time 5 day): 9.7 x10E3/uL | LYMPHOCYTE (120 h, time 5 day): 85.33% | MEAN CORPUSCULAR HEMOGLOBIN (120 h, time 5 day): 22.52 pg | MEAN CORPUSCULAR HEMOGLOBIN CONCENTRATION (120 h, time 5 day): 36.42 G/DL | MEAN CORPUSCULAR VOLUME (120 h, time 5 day): 61.78 fL | MONOCYTE (120 h, time 5 day): 1.83% | NEUTROPHIL (120 h, time 5 day): 12.67% | NUCLEATED RED BLOOD CELLS (120 h, time 5 day): 0 /100WBC | PLATELET COUNT (120 h, time 5 day): 907.5 x10E3/uL | ALANINE AMINOTRANSFERASE (120 h, time 5 day): 58.5 u/L | ALBUMIN (120 h, time 5 day): 4.4 G/DL | ALKALINE PHOSPHATASE (120 h, time 5 day): 377.67 u/L | ASPARTATE AMINOTRANSFERASE (120 h, time 5 day): 140.33 u/L | BLOOD UREA NITROGEN (120 h, time 5 day): 15.33 mg/dL | CARBON DIOXIDE (120 h, time 5 day): 32.17 mmol/L | CHLORIDE (120 h, time 5 day): 100 MEQ/L | CHOLESTEROL (120 h, time 5 day): 71.83 mg/dL | CREATININE (120 h, time 5 day): 0.18 mg/dL | GLUCOSE (120 h, time 5 day): 185 mg/dL | LACTATE DEHYDROGENASE (120 h, time 5 day): 241.5 u/L | LIPASE (120 h, time 5 day): 9.5 u/L | PHOSPHORUS (120 h, time 5 day): 13.02 mg/dL | POTASSIUM (120 h, time 5 day): 6.45 MEQ/L | SODIUM (120 h, time 5 day): 143.45 MEQ/L | TOTAL BILIRUBIN (120 h, time 5 day): 0.22 mg/dL | TOTAL PROTEIN (120 h, time 5 day): 6.1 G/DL | URIC ACID (120 h, time 5 day): 1 mg/dL | ABSOLUTE BASOPHIL ([…], time 14 day): 0 CELLS/uL | ABSOLUTE EOSINOPHIL ([…], time 14 day): 117.17 CELLS/uL | ABSOLUTE LYMPHOCYTE ([…], time 14 day): 13562 CELLS/uL | ABSOLUTE MONOCYTE ([…], time 14 day): 534.83 CELLS/uL | ABSOLUTE SEGMENTED NEUTROPHIL ([…], time 14 day): 2486 CELLS/uL | BASOPHIL ([…], time 14 day): 0% | EOSINOPHIL ([…], time 14 day): 0.83% | ERYTHROCYTE COUNT ([…], time 14 day): 6.14 x10E6/uL | HEMATOCRIT ([…], time 14 day): 36.87% | HEMOGLOBIN ([…], time 14 day): 13.87 G/DL | LEUKOCYTE COUNT ([…], time 14 day): 16.7 x10E3/uL | LYMPHOCYTE ([…], time 14 day): 81% | MEAN CORPUSCULAR HEMOGLOBIN ([…], time 14 day): 22.63 pg | MEAN CORPUSCULAR HEMOGLOBIN CONCENTRATION ([…], time 14 day): 37.62 G/DL | MEAN CORPUSCULAR VOLUME ([…], time 14 day): 60.15 fL | MONOCYTE ([…], time 14 day): 3.17% | NEUTROPHIL ([…], time 14 day): 15% | NUCLEATED RED BLOOD CELLS ([…], time 14 day): 0 /100WBC | PLATELET COUNT ([…], time 14 day): 974.83 x10E3/uL | ALANINE AMINOTRANSFERASE ([…], time 14 day): 52.33 u/L | ALBUMIN ([…], time 14 day): 4.48 G/DL | ALKALINE PHOSPHATASE ([…], time 14 day): 346.17 u/L | ASPARTATE AMINOTRANSFERASE ([…], time 14 day): 81 u/L | BLOOD UREA NITROGEN ([…], time 14 day): 15.67 mg/dL | CARBON DIOXIDE ([…], time 14 day): 34.33 mmol/L | CHLORIDE ([…], time 14 day): 100.17 MEQ/L | CHOLESTEROL ([…], time 14 day): 70.83 mg/dL | CREATININE ([…], time 14 day): 0.22 mg/dL | GLUCOSE ([…], time 14 day): 141.17 mg/dL | LACTATE DEHYDROGENASE ([…], time 14 day): 121.33 u/L | LIPASE ([…], time 14 day): 8.33 u/L | PHOSPHORUS ([…], time 14 day): 9.97 mg/dL | POTASSIUM ([…], time 14 day): 6.4 MEQ/L | SODIUM ([…], time 14 day): 143.72 MEQ/L | TOTAL BILIRUBIN ([…], time 14 day): 0.22 mg/dL | TOTAL PROTEIN ([…], time 14 day): 6.45 G/DL | URIC ACID ([…], time 14 day): 1.25 mg/dL
